Laboratory results taken from US10155751B2, “Pyrazolyl-substituted heteroaryls and their use as medicaments” (Boehringer Ingelheim International GmbH, priority 2015, dated 2018).

Experiments:
[1] = target: Recombinant human Aurora B (amino acids 1-344) (Homo sapiens (Human), UniProt Q96GD4); experiment: Aurora B kinase test (ADP Glo); format: biochemical; details: for IC50: read-out: AURB inhibition IC50-value (chapter 5.3)
Description: The activity of the Aurora B kinase protein was determined using the ADP Glo® Luminescence Kinase test (Promega; V9103X). In this homogeneous test the amount of ADP remaining after the kinase reaction is quantified by a luciferin-luciferase reaction using luminescence. The luminescence signal obtained correlates with the amount of ADP still present and thus correlates with the activity of the protein kinase.
The test compounds were dissolved in 100% DMSO at a concentration of 10 mM and diluted in DMSO to a concentration of 5 mM. Serial Dilution is done in 1:10 steps in 100% DMSO. All further dilutions of the substances were carried out with test buffer (50 mM Hepes, pH 7.5, 10 mM MgCl2, 1 mM EGTA, 60 μM Ultra Pure ATP, 0.01% Brij35, 0.1% BSA, 5 mM 8-Glycerophosphate) until a concentration was reached which was 2.5 times above the final test concentration (final concentration of the compounds: 50 μM to 0.005 nM). 4 μl aliquots of these dilutions were transferred into a 384-well Optiplate (Perkin Elmer, #6007290). His-Aurora B was diluted to 125 nM in the test buffer and 4 μl of this dilution were used in the kinase test (final concentration of Aurora B=50 nM in a total volume of 10 μl). After 15 minutes incubation at room temperature 2 μl of 250 μM substrate ([[…]]; University of Dundee) in test buffer were added to each well and the incubation was continued for a further 60 minutes at room temperature.
(§1) Positive controls are the reaction mixtures that contain no test substance; negative controls (blanks) are reaction mixtures that contain no kinase.
After 60 minutes, 10 μl ADP-Glo® solution (ADP-Glo Reagent #V912B Promega) (heated to room temperature) were added to each well and incubation was continued for a further 40. minutes. Then 20 μl Kinase detection mix (Detection Buffer #V913B Promega; Kinase Detection Substrate #V914B Promega) were added and incubated for 40 minutes at room temperature. The plates were read in Envision Luminescence Reader (Perkin-Elmer).
(§2) The output file of the reader is a csv file that contains the well number and measured RLU. For data evaluation and calculation, the measurement of the negative control was set as 0% ctrl and the measurement of the positive control was set as 100% ctrl. Based on this values the % value for the measurement of each substance concentration can be calculated using an Assay Explorer software (e.g. Accelrys). Normally, the % ctrl values calculated are between 0% and 100% values but may also occur outside these limits in individual cases based on variability or compound characteristics. The IC50-values were calculated from the % ctrl values using Assay Explorer software. Calculation: [y=(a−d)/(1+(x/c)^b)+d], a=low value, d=high value; x=conc M; c=IC50 M; b=hill; y=% ctrl.

[2] = target: Recombinant human SYK (amino acids 342-635), GST-SYK kinase fusion protein (Homo sapiens (Human), UniProt P43405); experiment: SYK kinase inhibition test (Kinase Glo luminescence); format: biochemical; details: read-out: SYK inhibition IC50-value (chapter 5.1)
Description: The catalytic activity of the GST-SYK kinase fusion protein was determined using the Kinase Glo® Luminescence Kinase test (Promega; V6712). In this homogeneous test the amount of ATP remaining after the kinase reaction is quantified by a luciferin-luciferase reaction using luminescence. The luminescence signal obtained correlates with the amount of ATP still present and thus correlates inversely with the activity of the kinase.
The test compounds were dissolved in 100% DMSO at a concentration of 10 mM and diluted in DMSO to a concentration of 1 mM. Serial Dilution is done in 100% DMSO. All further dilutions of the substances were carried out with test buffer (25 mM HEPES pH7.5; 25 mM MgCl2; 5 mM MnCl2; 50 mM KCl; 0.2% HSA; 0.01% CHAPS; 100 μM Na3VO4; 0.5 mM DTT). Dilution steps and concentration range were adapted according to need. 7 μl aliquots of these dilutions were transferred into a 384-well Optiplate (Perkin Elmer, #6007290). GST-SYK was diluted to 12 nM in the test buffer and 5 μl of this dilution were used in the kinase test (final concentration of SYK=4 nM in a total volume of 15 μl). After 15 minutes incubation at room temperature 3 μl of a mixture of 750 nM ATP and 100 μg/ml poly (L-Glutamic acid L-Tyrosine 4:1), Fluka #81357) in test buffer were added to each well and the incubation was continued for a further 60 minutes at room temperature.
as §1
After 60 minutes, 10 μl Kinase-Glo® solution (Promega, Cat. # V6712) (heated to room temperature) were added to each well and incubation was continued for a further 15 minutes. The plates were read in Envision Luminescence Reader (Perkin-Elmer).
as §2, with “measured relative light units (RLU).” for “measured RLU.”, “as 100%” for “as 0%”, “as 0%” for “as 100%”, “concentration was” for “concentration can be”, “software (Accelrys).” for “software (e.g. Accelrys).”, “Calculation: [y=(a−d)/(1+(x/c)^b)+d]” for “Calculation: [y=(a−d)/(1+(x/c)^b)+d],”
Satisfying SYK inhibitory capacities are represented by an IC50(SYK)-Value measured by this assay of <10 nMol.

Sequence of Recombinant human Aurora B (amino acids 1-344) (Q96GD4 whole entry, the tested form may be a part): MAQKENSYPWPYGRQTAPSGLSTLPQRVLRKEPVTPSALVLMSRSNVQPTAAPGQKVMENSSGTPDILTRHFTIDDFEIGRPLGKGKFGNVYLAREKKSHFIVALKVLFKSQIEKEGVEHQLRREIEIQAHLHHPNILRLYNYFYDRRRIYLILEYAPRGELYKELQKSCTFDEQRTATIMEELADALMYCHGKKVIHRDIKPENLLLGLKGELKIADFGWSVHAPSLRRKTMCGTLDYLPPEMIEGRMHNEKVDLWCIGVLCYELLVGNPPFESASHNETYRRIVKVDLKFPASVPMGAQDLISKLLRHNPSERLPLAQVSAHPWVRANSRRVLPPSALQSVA

Cc1c2c(O[C@H](C)[C@H]3CNC(=O)O3)nc(-c3cnn(C(C)(C)C)c3)cc2nn1C [Example 3, (R)-5-{(R)-1-[6-(1-tert-Butyl-1H-pyrazol-4-yl)-2,3-dimethyl-2H-pyrazolo[4,3-c]pyridin-4-yloxy]-ethyl}-oxazolidin-2-one]
selectivity ratio IC50(AURB)/IC50(SYK) [1]: 15731
IC50 [1]: 31.5 µM
IC50 [2]: 2 nM

Cc1c2c(O[C@H](C)[C@H]3CNC(=O)C3)cc(-c3cnn([C@H]4CO[C@@H]5CCCO[C@@H]54)c3)cc2nn1C [Example 10, 4-(1-{6-[(R)-(3S,3aR,7aR)-1-(Hexahydro-furo[3,2-b]pyran-3-yl)-1H-pyrazol-4-yl]-2,3-dimethyl-2H-indazol-4-yloxy}-ethyl)-pyrrolidin-2-one]
selectivity ratio IC50(AURB)/IC50(SYK) [1]: 10312
IC50 [1]: 34 µM
IC50 [2]: 3.3 nM

Cc1c2c(O[C@H](C)[C@H]3CNC(=O)C3)cc(-c3cnn(CC(C)C)c3)cc2nn1C [Example 19, (R)-4-{(R)-1-[6-(1-Isobutyl-1H-pyrazol-4-yl)-2,3-dimethyl-2H-indazol-4-yloxy]-ethyl}-pyrrolidin-2-one]
selectivity ratio IC50(AURB)/IC50(SYK) [1]: 13212
IC50 [1]: 23.8 µM
IC50 [2]: 1.8 nM

C[C@@H](Oc1cc(-c2cnn(CC3CC3)c2)cc2nn(C)c(F)c12)[C@H]1CNC(=O)C1 [Example 6, (R)-4-{(R)-1-[6-(1-Cycloprop-ylmethyl-1H-pyrazol-4-yl)-3-fluoro-2-methyl-2H-indazol-4-yloxy]-ethyl}-pyrrolidin-2-one]
selectivity ratio IC50(AURB)/IC50(SYK) [1]: 13115
IC50 [1]: 34.1 µM
IC50 [2]: 2.6 nM

Cc1c2c(O[C@H](C)[C@H]3CNC(=O)C3)cc(-c3cnn(CC4CC4)c3)cc2nn1C [Example 8, (R)-4-{(R)-1-[6-(1-Cyclopropylmethyl-1H-pyrazol-4-yl)-2,3-dimethyl-2H-indazol-4-yloxy]-ethyl}-pyrrolidin-2-one]
selectivity ratio IC50(AURB)/IC50(SYK) [1]: 15080
IC50 [1]: 21.1 µM
IC50 [2]: 1.4 nM

C[C@@H](Oc1cc(-c2cnn(C3CC(C)(C)OC3(C)C)c2)cc2nn(C)c(F)c12)[C@H]1CNC(=O)C1 (stereo partly drawn) [Example 14, (R)-4-((R)-1-{3-Fluoro-2-methyl-6-[1-(2,2,5,5-tetramethyl-tetrahydro-furan-3-yl)-1H-pyrazol-4-yl]-2H-indazol-4-yloxy}-ethyl)-pyrrolidin-2-one]
selectivity ratio IC50(AURB)/IC50(SYK) [1]: 15625
IC50 [1]: 50 µM
IC50 [2]: 3.2 nM

C[C@@H](Oc1cc(-c2cnn(C3CC3)c2)cc2nn(C)c(F)c12)[C@H]1CNC(=O)C1 [Example 5, (R)-4-{(R)-1-[6-(1-Cycloprop-yl-1H-pyrazol-4-yl)-3-fluoro-2-methyl-2H-indazol-4-yloxy]-ethyl}-pyrrolidin-2-one]
selectivity ratio IC50(AURB)/IC50(SYK) [1]: 15152
IC50 [1]: 50 µM
IC50 [2]: 3.3 nM

Cc1c2c(O[C@H](C)[C@H]3CNC(=O)C3)cc(-c3cnn(C4CCC4)c3)cc2nn1C [Example 21, (R)-4-{(R)-1-[6-(1-Cyclobutyl-1H-pyrazol-4-yl)-2,3-dimethyl-2H-indazol-4-yloxy]-ethyl}-pyrrolidin-2-one]
selectivity ratio IC50(AURB)/IC50(SYK) [1]: 14442
IC50 [1]: 17.3 µM
IC50 [2]: 1.2 nM
